Measurements: ChEMBL document CHEMBL1201862, “PubChem BioAssay data set” (2004)
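Tested at 5 concentrations; 48 h exposure; 96-well plates; endpoints linearly interpolated, else capped at highest concentration. GI50 is the concentration that inhibits growth by half.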 Active and inactive are the calls of the source. No stated cut-off is given here; in the data, active = GI50 up to about 1.1 µM and inactive = higher.

Legend:
Experiment in all cases: DTP human tumour cell line panel, 48 h
A549 = tested on: A549
BT-549 = tested on: BT-549
CAKI-1 = tested on: CAKI-1
EKVX = tested on: EKVX
HCC 2998 = tested on: HCC 2998
HCT-116 = tested on: HCT-116
Hs-578T = tested on: Hs-578T
M14 = tested on: M14
MDA-MB-231 = tested on: MDA-MB-231
MDA-MB-435 = tested on: MDA-MB-435
MDA-N = tested on: MDA-N
NCI-H460 = tested on: NCI-H460
OVCAR-4 = tested on: OVCAR-4
PC-3 = tested on: PC-3
SF-295 = tested on: SF-295
SK-MEL-5 = tested on: SK-MEL-5
SR = tested on: SR
T47D = tested on: T47D
UO-31 = tested on: UO-31
LXFL 529 = tested on: LXFL 529

Measured: GI50

CCC1(CC)C(=O)N(C(=O)c2ccc(Cl)cc2)N(C(=O)c2ccccc2Cl)C1=O
inactive: A549 > 100 µM | BT-549 67.9 µM | CAKI-1 > 100 µM | EKVX 4.58 µM | HCC 2998 > 100 µM | HCT-116 31.6 µM | Hs-578T 43.5 µM | M14 > 100 µM | MDA-MB-231 50.5 µM | MDA-MB-435 11.2 µM | MDA-N 39.7 µM | NCI-H460 19.3 µM | OVCAR-4 > 100 µM | PC-3 > 100 µM | SF-295 63.5 µM | SK-MEL-5 75 µM | SR 34.9 µM | T47D 62.7 µM | UO-31 > 100 µM

COC(=O)c1ccc(/C=C/S(=O)(=O)c2ccccc2)cc1
inactive: A549 > 100 µM | CAKI-1 > 100 µM | EKVX > 100 µM | HCT-116 > 100 µM | LXFL 529 > 100 µM | M14 > 100 µM | NCI-H460 > 100 µM | OVCAR-4 > 100 µM | SF-295 > 100 µM | SK-MEL-5 > 100 µM | UO-31 > 100 µM

Cc1ccc(N2CN3OC(=O)N(c4ccccc4)[C@@]3(c3ccccc3)C2)cc1
inactive: A549 36.5 µM | BT-549 50.4 µM | CAKI-1 33.3 µM | EKVX 45.7 µM | HCC 2998 24.9 µM | HCT-116 29.2 µM | Hs-578T 87.9 µM | M14 65.5 µM | MDA-MB-231 26.9 µM | MDA-MB-435 26.4 µM | MDA-N 33.6 µM | NCI-H460 21.6 µM | OVCAR-4 34.2 µM | PC-3 34.2 µM | SF-295 17.5 µM | SK-MEL-5 31.3 µM | SR 16 µM | T47D 14.2 µM | UO-31 57.4 µM

CC(C)N(C(=O)C12C3(C(=O)OC(C)(C)C)C4C5(C#N)C3C1(C(=O)OC(C)(C)C)C5C42C(=O)OC(C)(C)C)C(C)C (stereo not given)
inactive: A549 93.5 µM | BT-549 > 100 µM | CAKI-1 37.3 µM | EKVX 53 µM | HCC 2998 97.9 µM | HCT-116 19.8 µM | Hs-578T 28.7 µM | M14 59.6 µM | MDA-MB-231 23 µM | MDA-MB-435 27.5 µM | MDA-N 19.1 µM | NCI-H460 75.7 µM | OVCAR-4 71.6 µM | PC-3 51.1 µM | SF-295 58.2 µM | SK-MEL-5 60.1 µM | SR 21.7 µM | T47D 31.9 µM | UO-31 60.4 µM

CC(C)=CCc1c(O)c(CC=C(C)C)c2oc(-c3ccc(O)cc3O)c(CC=C(C)C)c(=O)c2c1O
inactive: A549 5.4 µM | BT-549 7.98 µM | CAKI-1 12.7 µM | EKVX 12.4 µM | HCC 2998 4.06 µM | HCT-116 4.97 µM | Hs-578T 7.76 µM | M14 8.83 µM | MDA-MB-231 12.6 µM | MDA-MB-435 4.52 µM | MDA-N 7.82 µM | NCI-H460 4.48 µM | OVCAR-4 5.51 µM | PC-3 6.46 µM | SF-295 7.45 µM | SK-MEL-5 10.8 µM | SR 2.34 µM | T47D 3.97 µM | UO-31 8.22 µM

CC(C)/C(=N\[N+](C)(C)C)c1ccccc1
inactive: A549 > 100 µM | BT-549 > 100 µM | CAKI-1 > 100 µM | EKVX > 100 µM | HCC 2998 > 100 µM | HCT-116 > 100 µM | Hs-578T > 100 µM | M14 > 100 µM | MDA-MB-231 > 100 µM | MDA-MB-435 > 100 µM | MDA-N > 100 µM | NCI-H460 > 100 µM | OVCAR-4 > 100 µM | PC-3 > 100 µM | SF-295 > 100 µM | SK-MEL-5 > 100 µM | SR > 100 µM | T47D > 100 µM | UO-31 > 100 µM

NC(=O)c1[nH]nc(C2OC(CO)C(O)C2O)c1O (stereo not given)
inactive: BT-549 182 µM | EKVX 52.6 µM | HCC 2998 42.5 µM | Hs-578T 94 µM | M14 95.3 µM | MDA-MB-231 8.59 µM | MDA-MB-435 15.7 µM | MDA-N 3.39 µM | OVCAR-4 24.7 µM | PC-3 3.02 µM | SK-MEL-5 64.3 µM | T47D 5.55 µM | UO-31 4.01 µM
active: A549 0.6 µM | CAKI-1 0.689 µM | HCT-116 0.548 µM | NCI-H460 0.573 µM | SF-295 0.851 µM | SR 0.5 µM
